According to the supplement of paper PMC10307832:

What was measured:
Test in all cases: relative viability (nuclei count vs DMSO), 5 days (fraction); higher = more cells survive
Crenolanib + Linsitinib = compound: CC1(COc2ccc3c(c2)ncn3-c2ccc3cccc(N4CCC(N)CC4)c3n2)COC1 [Crenolanib] + C[C@]1(O)C[C@@H](c2nc(-c3ccc4ccc(-c5ccccc5)nc4c3)c3c(N)nccn32)C1 [Linsitinib] (partner 1 µM)
How it was run: (§1)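 Lung cancer cell lines were pin-tool dosed in 1536-well plates on the day after seeding, with either a lone drug or a fixed anchor-drug dose plus five library-drug doses (not always all listed) in √10 steps. Nuclei were counted on 4× images after 5 days. Relative viability is the ratio of treated-well to vehicle-well nuclei counts, with each value a median of duplicate plates.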

Crenolanib + Bortezomib = compound: CC1(COc2ccc3c(c2)ncn3-c2ccc3cccc(N4CCC(N)CC4)c3n2)COC1 [Crenolanib] + CC(C)C[C@H](NC(=O)[C@H](Cc1ccccc1)NC(=O)c1cnccn1)B(O)O [Bortezomib] (partner 0.002 µM)
How it was run: as §1

Tivantinib + Palbociclib = compound: O=C1NC(=O)[C@@H](c2cn3c4c(cccc24)CCC3)[C@@H]1c1c[nH]c2ccccc12 [Tivantinib] + CC(=O)c1c(C)c2cnc(Nc3ccc(N4CCNCC4)cn3)nc2n(C2CCCC2)c1=O [Palbociclib] (partner 0.5 µM)
How it was run: as §1

Tivantinib + Dasatinib = compound: O=C1NC(=O)[C@@H](c2cn3c4c(cccc24)CCC3)[C@@H]1c1c[nH]c2ccccc12 [Tivantinib] + Cc1nc(Nc2ncc(C(=O)Nc3c(C)cccc3Cl)s2)cc(N2CCN(CCO)CC2)n1 [Dasatinib] (partner 0.075 µM)
How it was run: as §1

| Cell Line | relative viability (Crenolanib + Linsitinib; first compound 0.01 µM) | relative viability (Crenolanib + Linsitinib; first compound 0.03162 µM) | relative viability (Crenolanib + Linsitinib; first compound 0.1 µM) | relative viability (Crenolanib + Linsitinib; first compound 0.3162 µM) | relative viability (Crenolanib + Linsitinib; first compound 1 µM) | relative viability (Crenolanib + Bortezomib; first compound 0.01 µM) | relative viability (Crenolanib + Bortezomib; first compound 0.03162 µM) | relative viability (Crenolanib + Bortezomib; first compound 0.1 µM) | relative viability (Crenolanib + Bortezomib; first compound 0.3162 µM) | relative viability (Crenolanib + Bortezomib; first compound 1 µM) | relative viability (Tivantinib + Palbociclib; first compound 0.01 µM) | relative viability (Tivantinib + Palbociclib; first compound 0.03162 µM) | relative viability (Tivantinib + Palbociclib; first compound 0.1 µM) | relative viability (Tivantinib + Dasatinib; first compound 0.01 µM) | relative viability (Tivantinib + Dasatinib; first compound 0.03162 µM) | relative viability (Tivantinib + Dasatinib; first compound 0.1 µM) | relative viability (Tivantinib + Dasatinib; first compound 0.3162 µM) | relative viability (Tivantinib + Palbociclib; first compound 0.3162 µM) |
| --- | --- | --- | --- | --- | --- | --- | --- | --- | --- | --- | --- | --- | --- | --- | --- | --- | --- | --- |
| NCI-H727 | 0.285 | 0.245 | 0.284 | 0.327 | 0.389 | 0.905 | 0.92 | 0.821 | 0.869 | 0.991 | 0.619 | 0.528 | 0.714 | 0.529 | 0.344 | 0.306 | 0.275 | – |
| NCI-H838 | 1.05 | 0.967 | 0.929 | 1.09 | 0.943 | 0.774 | 0.796 | 0.984 | 0.77 | 0.566 | 0.245 | 0.212 | 0.188 | 0.324 | 0.296 | 0.274 | 0.276 | 0.207 |
| NCI-H1355 | 0.857 | 0.848 | 0.773 | 0.947 | 0.809 | 1.33 | 1.15 | 1.3 | 1.37 | 0.951 | 0.395 | 0.374 | 0.385 | 0.666 | 0.668 | 0.675 | 0.564 | 0.384 |
| NCI-H1437 | 1.05 | 1.03 | 0.958 | 1.12 | 1.02 | 0.48 | 0.408 | 0.557 | 0.515 | 0.526 | 0.311 | 0.28 | 0.335 | 0.427 | 0.334 | 0.429 | 0.376 | 0.289 |
| NCI-H1651 | 1.06 | 0.988 | 0.892 | 1.02 | 0.878 | 0.982 | 0.894 | 0.904 | 0.926 | 0.913 | 0.518 | 0.461 | 0.495 | 0.386 | 0.354 | 0.391 | 0.475 | 0.424 |
| NCI-H1666 | 0.871 | 0.909 | 0.765 | 0.881 | 0.839 | 0.9 | 0.711 | 0.858 | 1.01 | 0.667 | 0.691 | 0.596 | 0.66 | 0.765 | 0.785 | 0.77 | 0.742 | 0.681 |
| NCI-H1734 | 0.925 | 0.934 | 0.858 | 1.02 | 0.895 | 0.979 | 1.09 | 0.919 | 1.22 | 0.93 | 0.384 | 0.319 | 0.336 | 0.425 | 0.472 | 0.436 | 0.478 | 0.366 |
| NCI-H1755 | 1.01 | 0.981 | 0.994 | 1.09 | 0.959 | 1.03 | 0.993 | 1.01 | 0.967 | 0.909 | 0.437 | 0.44 | 0.432 | 0.482 | 0.437 | 0.401 | 0.39 | 0.459 |
| NCI-H1792 | 0.603 | 0.648 | 0.554 | 0.532 | 0.518 | 1.03 | 0.882 | 0.879 | 1.13 | 0.94 | 0.685 | 0.62 | 0.627 | 0.902 | 0.714 | 0.675 | 0.481 | 0.618 |
